Measured values reported in patent publication US10952940B2, “Reagents and methods for mineralization of tooth enamel” (UNIVERSITY OF WASHINGTON, priority 2016, dated 2021).
Entries after “also recorded” stand apart in the source; their conditions may differ.

Columns and labels:
[1] = In vitro re-mineralization of tea-stained human tooth using the peptide solution, optical images and line profile analysis
Experimental: A caries-free human tooth was sterilized in 1% bleach solution for 24 hours then removed and vigorously rinsed with deionized water. The root site was removed and the crown sectioned vertically using a diamond blade. Pictures were taken with a camera attached to an optical microscope.
The exposed dentine sites were etched with 35% phosphoric acid (Ultraetch™) for 60 seconds (to facilitate the stain intake). The etching gel was removed by rinsing the sample with distilled water for 3 minutes. The staining solution was prepared by boiling 2 g of tea in 100 ml of deionized water for 5 minutes, which was then cooled down to room temperature and filtered. The tooth was soaked in the staining solution and incubated at 37° C. at 150 rpm for 24 hours. The tooth was then removed from the staining solution and sonicated for 30 seconds in deionized water (sonic bath) to remove the excess amount of tea particles attached to tooth extrinsically. The sectioned tooth was cut vertically in half again to form two quarter sections of the tooth. FIGS. 2(a) to 2(g) show various sections of the tooth after the staining. […] Figures (b), (c) and (d) show different views of the left quarter of the tooth that was sectioned from the tooth. […]

[2] = Structural characterization of remineralized layer by TEM; design: species or system human; details: TEM of fragments shaved off the surface; listed as group 6
Experimental: After remineralization steps were completed, TEM samples were collected by carefully shaving off the top most surface of the remineralized layer from the artificially created white spot lesion using a clean razor blade. The shaved particles were suspended in 100% ethanol, and the suspension was drop-casted onto a carbon coated TEM grid, which was then vacuum dried before TEM characterization. TEM bright field imaging (BF) imaging and selected areas diffraction were carried out using an FEI Tecnai (FEI, Hillboro, Oreg., USA) operating at 200 keV.
Structural and phase characterization of the samples from all groups were undertaken by transmission electron microscopy imaging and diffraction analysis. This is because x-ray diffraction characterization requires large enough volume with 10s of lam mass thickness and larger spatial sampling, 100s of μms or larger areas. Since the mineralized layer is thin, a few μms in all other group samples to 10 μm or so in group 6 samples using the peptide, TEM has been used to provide the most critical data, diffraction and phase identification. The TEM samples were prepared by gently shaving fragments off the surface of tooth specimens onto carbon-coated TEM grid to prepare and ensure electron transparent sections. All of the TEM data is included in FIG. 13 below for completeness (while only 1st, 4th and 6th columns of data were presented in FIG. 11).

## SYENSHSQAINVDRT [shADP5, 15-amino acid long amelogenin-derived peptide, shortened human ADP5]
[1]; ImageJ line profile, after staining and remineralization
  Mean Pixel Intensity (MPI) compared with original and stained tooth: higher MPI than the original tooth and the tooth after staining
[1]; tea-stained human tooth quarter, peptide 10 min 37° C., then CaCl2/KH2PO4 16 hours
  tooth color compared with control: lighter in color than the left quarter (control)
[2]
  structure of mineral found by TEM imaging and diffraction: large particles (in the shown projection) of HAp; also recorded: HAp crystallites with aligned organization
